According to US20250032524A1, “BROAD SPECTRUM AMINOGLYCOSIDES AND USES THEREOF” (REVAGENIX, INC., priority 2022, published 2025):
Where two headings read alike, the source gives them in different places.

Legend:
Assay type in all cases: cell-based
[1] = system: AG-resistant P. aeruginosa; experiment: Antibacterial surveillance of clinical isolates (MIC50/90); conditions: Pseudomonas aeruginosa, 50 isolates with defined aminoglycoside resistance
In short: (§1)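 Broth microdilution per CLSI; CAMHB; 5×10^5 CFU/mL; 2-fold dilutions; 35° C, 18-24 h, ambient air. MIC endpoint OD 600 nm<0.05. US/EU SENTRY panels; MIC50/MIC90 per set.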

[2] = system: Methicillin-sensitive S. aureus (MSSA); experiment: as above; conditions: Staphylococcus aureus, MSSA, 20 isolates
In short: as §1

P. aeruginosa [3] = experiment: as above; conditions: Pseudomonas aeruginosa, 103 isolates
In short: as §1

[4] = system: AG-resistant Enterobacterales; experiment: as above
In short: as §1

[5] = system: A. baumannii-calcoaceticus; experiment: as above; conditions: 100 isolates
In short: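 CLSI broth microdilution in cation-adjusted Mueller-Hinton broth, final inoculum 5×10^5 CFU/mL, 2-fold compound dilutions, 35° C ambient air for 18-24 hours. MIC = lowest concentration preventing visible growth (OD 600 nm<0.05). SENTRY US/European isolates (1:1); MIC50/MIC90 = concentrations inhibiting ≥50%/≥90% of each set.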

[6] = system: Methicillin-resistant S. aureus (MRSA); experiment: as above; conditions: Staphylococcus aureus, MRSA, 30 isolates
In short: as §1

Enterobacterales = experiment: as above
In short: as §1

[7] = system: all sets of organisms tested (SENTRY clinical isolates); experiment: Antibacterial surveillance, overall statement; conditions: all sets of organisms tested (Table 3); read-out: MIC50,90 values
Method: Minimum inhibitory concentrations for representative example compounds herein were determined by a broth microdilution method in accordance with the Clinical and Laboratory Standards Institute (CLSI) guidelines. In brief, organism suspensions were adjusted to a 0.5 McFarland standard to yield a final inoculum between 3×10^5 and 7×10^5 colony-forming units (CFU)/mL. The inoculum was prepared by suspension of a colony from an agar plate that was prepared the previous day. Compound dilutions and inoculum were prepared in sterile, cation adjusted Mueller-Hinton Broth (Beckton Dickinson).
Bacteria were suspended in sterile saline and added to each assay plate to obtain a final concentration of 5×10^5 CFU/mL. An inoculum volume of 100 μL was added to wells containing 100 μL of broth with 2-fold serial dilutions of the test compound. All inoculated microdilution trays were incubated in ambient air at 35° C. for 18-24 hours. Following incubation, the lowest concentration of the compound that prevented visible growth (OD 600 nm<0.05) is recorded was the MIC. […] Performance of the assay was monitored by the use of laboratory quality-control strains and a standard compound with a defined MIC spectrum (neomycin), in accordance with CLSI guidelines.
Several compounds of the disclosure (Compound 1, 2, and 3) were further evaluated against several hundred bacterial isolates (isolated in the United States and Europe, 1:1) selected from the SENTRY Antimicrobial Surveillance Program (JMI Laboratories, North Liberty, Iowa). The set of clinical isolates included 300 randomly selected Enterobacterales, 103 randomly selected P. aeruginosa, 100 randomly selected A. baumannii-calcoaceticus, 20 randomly selected Methicillin-sensitive S. aureus (MSSA), and 30 randomly selected Methicillin-resistant S. aureus (MRSA). In addition, 101 Enterobacterales and 50 P. aeruginosa isolates with genetically defined mechanisms of aminoglycoside resistance were included. […]

E. coli = experiment: MIC broth microdilution (CLSI); conditions: Escherichia coli
In short: (§2)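 Susceptibility was measured by microdilution in cation-adjusted Mueller-Hinton broth following CLSI guidance, with bacteria at 5×10^5 CFU/mL and incubation at 35° C. for 18-24 hours. Growth inhibition was scored visually, using an OD 600 nm<0.05 cut-off.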

P. aeruginosa [8] = experiment: MIC broth microdilution (CLSI); conditions: Pseudomonas aeruginosa
In short: as §2

K. aerogenes = experiment: MIC broth microdilution (CLSI); conditions: Klebsiella aerogenes; strain AEAE1042, MDR Clinical isolate (CDC CRE panel), CDC AR Bank 0161
In short: as §2

K. pneumoniae = experiment: MIC broth microdilution (CLSI)
In short: as §2

A. baumannii = experiment: MIC broth microdilution (CLSI); conditions: Acinetobacter baumannii
In short: as §2

E. cloacae = experiment: MIC broth microdilution (CLSI); conditions: Enterobacter cloacae; strain AECL1089, MDR Clinical isolate (CDC CRE panel), CDC AR Bank 0154
In short: as §2

[9] = system: clinical isolates of multi-drug resistant bacterial pathogens including A. baumannii, MRSA, P. aeruginosa, and CRE; experiment: MIC secondary panel, overall statement; conditions: read-out: minimum inhibitory concentration (MIC) values
In short: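 CLSI broth microdilution in cation-adjusted Mueller-Hinton broth, 2-fold compound dilutions, final inoculum 5×10^5 CFU/mL. Incubated in ambient air at 35° C for 18-24 hours; MIC is lowest concentration preventing visible growth (OD 600 nm<0.05). QC strains and neomycin standard monitored performance.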

## C[C@H](N)[C@@H]1CC[C@@H](N)[C@@H](O[C@@H]2[C@@H](N)[C@H](O)[C@@H](NC(=O)[C@@H](O)[C@H](F)CN)[C@H](O)[C@H]2O[C@@H]2O[C@H](CO)[C@@H](O[C@H]3O[C@@H](CN)[C@@H](O)[C@H](O)[C@H]3N)[C@H]2O)O1 [Compound 3, (2R,3R)-4-amino-N-((1R,2S,3S,4R,5R,6S)-3-amino-4-(((2R,3R,6S)-3-amino-6-((S)-1-aminoethyl)tetrahydro-2H-pyran-2-yl)oxy)-5-(((2S,3R,4S,5R)-4-(((2R,3R,4R,5S,6S)-3-amino-6-(aminomethyl)-4,5-dihydroxytetrahydro-2H-pyran-2-yl)oxy)-3-hydroxy-5-(hydroxymethyl)tetrahydrofuran-2-yl)oxy)-2,6-dihydroxycyclohexyl)-3-fluoro-2-hydroxybutanamide]
[1]; read-out: MIC50
  MIC50: < 16 µg/mL
[1]; read-out: MIC90
  MIC90: < 16 µg/mL
[2]; read-out: MIC50
  MIC50: < 16 µg/mL
[2]; read-out: MIC90
  MIC90: < 16 µg/mL
P. aeruginosa [3]; read-out: MIC50
  MIC50: < 16 µg/mL
P. aeruginosa [3]; read-out: MIC90
  MIC90: < 16 µg/mL
[4]
  MIC50: < 16 µg/mL
  MIC90: < 16 µg/mL
[5]; read-out: MIC50
  MIC50: < 16 µg/mL
[5]; read-out: MIC90
  MIC90: < 16 µg/mL
[6]; read-out: MIC50
  MIC50: < 16 µg/mL
[6]; read-out: MIC90
  MIC90: < 16 µg/mL
Enterobacterales
  MIC50: < 16 µg/mL
  MIC90: < 16 µg/mL
[7]
  MIC50: ≤ 16 µg/mL
E. coli; read-out: Activity (MIC), strain AECO1225, MDR Clinical isolate (CDC CRE panel), CDC AR Bank 0118
  MIC: < 16 µg/mL
E. coli; read-out: Activity (MIC), strain AECO1226, MDR Clinical isolate (CDC CRE panel), CDC AR Bank 0119
  MIC: < 16 µg/mL
E. coli; read-out: Activity (MIC), strain AECO1227, MDR Clinical isolate (CDC CRE panel), CDC AR Bank 0128
  MIC: < 16 µg/mL
E. coli; read-out: Activity (MIC), strain NECO0003, ΔtolC
  MIC: < 16 µg/mL
E. coli; read-out: Activity (MIC), strain NECO0245, ArmA
  MIC: < 16 µg/mL
E. coli; strain NECO0001, WT QC, read-out: Activity (MIC)
  MIC: < 16 µg/mL
E. coli; strain NECO0002, WT, read-out: Activity (MIC)
  MIC: < 16 µg/mL
E. coli; strain NECO0243, empty vector, read-out: Activity (MIC)
  MIC: < 16 µg/mL
E. coli; strain NECO0244, AAC(6')-Ib, read-out: Activity (MIC)
  MIC: < 16 µg/mL
E. coli; strain NECO0289, APH(3')-Ia, read-out: Activity (MIC)
  MIC: < 16 µg/mL
E. coli; strain NECO0302, AAC(3)-IIa, read-out: Activity (MIC)
  MIC: < 16 µg/mL
E. coli; strain NECO0350, AAC(2')-I, read-out: Activity (MIC)
  MIC: < 16 µg/mL
E. coli; strain NECO0359, ANT(4')-Ia, read-out: Activity (MIC)
  MIC: < 16 µg/mL
P. aeruginosa [8]; read-out: Activity (MIC), strain NPAE0006, Efflux KO, Aph(3')-IIb
  MIC: < 16 µg/mL
P. aeruginosa [8]; read-out: Activity (MIC), strain NPAE0010, MexXY over-expressed, Aph(3')-IIb
  MIC: < 16 µg/mL
P. aeruginosa [8]; read-out: Activity (MIC), strain NPAE1288, MDR Clinical isolate
  MIC: < 16 µg/mL
P. aeruginosa [8]; read-out: Activity (MIC), strain NPAE1293, MDR Clinical isolate
  MIC: < 16 µg/mL
P. aeruginosa [8]; read-out: Activity (MIC), strain NPAE1299, MDR Clinical isolate
  MIC: < 16 µg/mL
P. aeruginosa [8]; read-out: Activity (MIC), strain NPAE1302, MDR Clinical isolate
  MIC: < 16 µg/mL
P. aeruginosa [8]; read-out: Activity (MIC), strain NPAE1303, MDR Clinical isolate
  MIC: < 16 µg/mL
P. aeruginosa [8]; read-out: Activity (MIC), strain NPAE1308, MDR Clinical isolate
  MIC: < 16 µg/mL
P. aeruginosa [8]; read-out: Activity (MIC), strain NPAE1310, MDR Clinical isolate
  MIC: < 16 µg/mL
P. aeruginosa [8]; read-out: Activity (MIC), strain NPAE1313, MDR Clinical isolate
  MIC: > 16 µg/mL
P. aeruginosa [8]; read-out: Activity (MIC), strain NPAE1316, MDR Clinical isolate
  MIC: < 16 µg/mL
P. aeruginosa [8]; read-out: Activity (MIC), strain NPAE1323, MDR Clinical isolate
  MIC: < 16 µg/mL
P. aeruginosa [8]; strain NPAE0001, WT Aph(3')-IIb, QC, read-out: Activity (MIC)
  MIC: < 16 µg/mL
P. aeruginosa [8]; strain NPAE0002, WT Aph(3')-IIb, read-out: Activity (MIC)
  MIC: < 16 µg/mL
P. aeruginosa [8]; strain NPAE0359, aph(3')-IIb KO (tetR), read-out: Activity (MIC)
  MIC: < 16 µg/mL
K. aerogenes
  MIC: < 16 µg/mL
K. pneumoniae; Klebsiella pneumoniae, strain AKPN1246, MDR Clinical isolate (CDC CRE panel), CDC AR Bank 0139
  MIC: < 16 µg/mL
K. pneumoniae; strain AKPN1250, MDR Clinical isolate (CDC CRE panel), CDC AR Bank 0143
  Activity (MIC): + (MIC threshold for positive activity (+) is ≤16 μg/mL)
K. pneumoniae; strain AKPN1253, MDR Clinical isolate (CDC CRE panel), CDC AR Bank 0148
  Activity (MIC): + (MIC threshold for positive activity (+) is ≤16 μg/mL)
K. pneumoniae; strain AKPN1255, MDR Clinical isolate (CDC CRE panel), CDC AR Bank 0153
  Activity (MIC): + (MIC threshold for positive activity (+) is ≤16 μg/mL)
A. baumannii; read-out: Activity (MIC), strain NABA0007, ΔadeJK efflux
  MIC: < 16 µg/mL
A. baumannii; read-out: Activity (MIC), strain NABA1427, MDR Clinical isolate
  MIC: < 16 µg/mL
A. baumannii; read-out: Activity (MIC), strain NABA1433, MDR Clinical isolate
  MIC: < 16 µg/mL
A. baumannii; read-out: Activity (MIC), strain NABA1434, MDR Clinical isolate
  MIC: < 16 µg/mL
A. baumannii; read-out: Activity (MIC), strain NABA1436, MDR Clinical isolate
  MIC: < 16 µg/mL
A. baumannii; read-out: Activity (MIC), strain NABA1437, MDR Clinical isolate
  MIC: < 16 µg/mL
A. baumannii; read-out: Activity (MIC), strain NABA1438, MDR Clinical isolate
  MIC: < 16 µg/mL
A. baumannii; read-out: Activity (MIC), strain NABA1439, MDR Clinical isolate
  MIC: < 16 µg/mL
A. baumannii; read-out: Activity (MIC), strain NABA1448, MDR Clinical isolate
  MIC: < 16 µg/mL
A. baumannii; read-out: Activity (MIC), strain NABA1449, MDR Clinical isolate
  MIC: < 16 µg/mL
A. baumannii; read-out: Activity (MIC), strain NABA1450, MDR Clinical isolate
  MIC: < 16 µg/mL
A. baumannii; strain NABA0006, WT parent, read-out: Activity (MIC)
  MIC: < 16 µg/mL
A. baumannii; strain NABA0020, AME negative strain, read-out: Activity (MIC)
  MIC: < 16 µg/mL
E. cloacae
  MIC: < 16 µg/mL
[9]
  MIC: ≤ 16 µg/mL
